Columns and labels:
[1] = molecular target: T1, PAR2 (HT-29 cells, SLIGKV activation) (Homo sapiens, UniProt P55085); experiment: Ca FLIPR TETRA assay, ANTAGONIST mode, stimulation with 8 μM SLIGKV; assay type: cell-based; conditions: for IC50: HT-29 cells
T1 construct: host or cells: HT-29 cells
T1 sequence (P55085 26-397): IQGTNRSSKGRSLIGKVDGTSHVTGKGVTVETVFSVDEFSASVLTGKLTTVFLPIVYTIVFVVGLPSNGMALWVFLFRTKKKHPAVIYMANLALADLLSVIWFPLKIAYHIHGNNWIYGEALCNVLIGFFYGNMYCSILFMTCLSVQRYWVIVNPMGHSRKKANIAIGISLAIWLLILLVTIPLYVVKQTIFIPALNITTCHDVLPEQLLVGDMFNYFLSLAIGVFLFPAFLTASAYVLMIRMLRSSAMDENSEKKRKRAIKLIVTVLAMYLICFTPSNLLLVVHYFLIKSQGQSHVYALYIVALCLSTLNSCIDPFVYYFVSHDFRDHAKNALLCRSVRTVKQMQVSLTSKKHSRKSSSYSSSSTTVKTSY
Experimental: (§1) Example 60: Protocol for Testing PAR2 Compounds in ANTAGONIST Mode Using the Ca FLIPR^TETRA Assay (384 Well)
(§2) 23000 HT-29 cells (ATCC# HTB-38) were plated in 384-well black, transparent-flat bottom plates and incubated in 25 uL of 1% FBS/McCoy's media ON at 37° C. under an atmosphere of 5% CO2. The following day, 25 uL FLIPR calcium 5 Molecular Devices assay reagent (Cat: R-8186) was added. Plates were incubated at 37° C. and r. t. for 45 min and 15 min, respectively. Compounds dilutions were prepared in 100% DMSO using a Biomek FX and diluted 20-fold in HBSS and then 5.5 uL was added directly to the cells by the FLIPR^TETRA (10× dilution) using FLIPR Tetra Pipette tips, black, non-sterile, 384 Molecular Devices (Cat: 9000-0764).
(§3) A first read was performed to determine whether the test compounds on their own can activate Ca2+ responses.
(§4) The cells were incubated with the compounds for 30 min at r. t. and then read in ANTAGONIST mode in the same plate by stimulating with 6.2 uL of a fixed concentration of the activator: final concentrations: 8 μM SLIGKV, 1 U/mL Thrombin, 3.1 U/mL trypsin, or 0.6 μM UTP.

[2] = test system: UTP-stimulated Ca2+ response in HT-29 cells; experiment: Ca FLIPR TETRA assay, ANTAGONIST mode, stimulation with 0.6 μM UTP; assay type: cell-based, human; conditions: Homo sapiens; HT-29 cells, stimulation with 0.6 μM UTP
Experimental: as §1, §2, §3, §4

[3] = test system: Thrombin-stimulated Ca2+ response in HT-29 cells; experiment: Ca FLIPR TETRA assay, ANTAGONIST mode, stimulation with 1 U/mL Thrombin; assay type: cell-based, human; conditions: HT-29 cells, stimulation with 1 U/mL Thrombin
Experimental: as §1, §2, §3, §4

[4] = molecular target: T2, PAR2 (HT-29 cells, trypsin activation) (Homo sapiens, UniProt P55085); experiment: Ca FLIPR TETRA assay, ANTAGONIST mode, stimulation with 3.1 U/mL trypsin; assay type: cell-based; conditions: for Trypsin % @ 50 μM: reported prior-art compounds
T2 construct: host or cells: HT-29 cells
T2 sequence (P55085 26-397): T1 sequence (P55085 26-397)
Experimental: as §1, §2, §3, §4

[5] = antagonist mode, stimulation with 8 μM SLIGKV
[6] = HT-29 cells, antagonist mode, stimulation with 3.1 U/mL trypsin
[7] = Table 6, HT-29 cells, 3.1 U/mL trypsin
[8] = Table 8, reported compounds of WO2005/030773, JP2003286171, JP2004170323
[9] = Table 8, reported compounds of WO2005/030773, JP2003286171, JP2004170323, HT-29 cells

SMILES | IC50 ([1]; Table 6, 8 μM SLIGKV) | IC50 [4, 7] | IC50 [1, 8] | IC50 [4, 9] | also measured
O=C(c1cn2nc(-c3ccc(F)cc3)cc(C(F)(F)F)c2n1)N1CCCCCC1 [Compound I-7, Azepan-1-yl-[6-(4-fluorophenyl)-8-(trifluoromethyl)imidazo[1,2-b]pyridazine-2-yl]methanone] |  |  |  |  | IC50 ([1]; stimulation with 8 μM SLIGKV): 0.089 µM; IC50 [2]: > 50 µM; IC50 ([3]; Homo sapiens): > 50 µM
O=C(c1cn2nc(-c3ccc(F)cc3)cc(C(F)(F)F)c2n1)N1CCCCC1c1nccs1 (stereo not shown) [Compound I-73] |  |  |  |  | IC50 ([1]; stimulation with 8 μM SLIGKV): 0.74 µM; IC50 ([4]; HT-29 cells, stimulation with 3.1 U/mL trypsin): 0.92 µM; IC50 ([3]; Homo sapiens): 1.7 µM
CC(C)(C)c1cc(-c2ccc(F)cc2)nn2cc(C(=O)N3CCC(O)CC3(C)C)nc12 (stereo not shown) [Compound I-484, (8-(tert-butyl)-6-(4-fluorophenyl)imidazo[1,2-b]pyridazin-2-yl)(4-hydroxy-2,2-dimethylpiperidin-1-yl)methanone] |  |  |  |  | IC50 [1, 5]: 0.0028 µM; IC50 [4, 6]: 0.0096 µM; IC50 ([3]; Homo sapiens, antagonist mode): > 1 µM
COC(=O)C1CC(C(=O)N2CCN(C(=O)c3cn4nc(-c5ccc(F)cc5)cc(C(C)(C)C)c4n3)C(C)(C)C2)C1 (stereo not shown) [Compound I-538] |  |  |  |  | IC50 [1, 5]: 0.0008 µM; IC50 [4, 6]: 0.0009 µM; IC50 ([3]; antagonist mode): > 1 µM
C[C@H]1CN(C(=O)c2cn3nc(-c4ccc(F)cc4)c(C(F)(F)F)cc3n2)CCN1C(=O)OCc1ccccc1 [Compound I-580] | 23 µM |  |  |  | Trypsin % @ 50 ([4]; Table 6, @ 50 (μM), HT-29 cells, 3.1 U/mL trypsin): 48% @ 50
O=C(c1cn2nc(-c3ccc(F)cc3)cc(C(F)(F)F)c2n1)N1CCN(Cc2ccccn2)CC1 [Compound I-581] | 50 µM | 46 µM |  |  | 
N#Cc1cccnc1N1CCN(C(=O)c2cn3nc(-c4ccc(F)cc4)cc(C(F)(F)F)c3n2)CC1 [Compound I-582] | 50 µM | > 50 µM |  |  | 
O=C(c1cn2nc(-c3ccc(F)cc3)cc(C(F)(F)F)c2n1)N1CCN(CCn2ccnc2)CC1 [Compound I-583] | 23 µM | > 50 µM |  |  | 
CCC(=O)N1CCN(C(=O)c2cn3nc(-c4ccc(F)cc4)cc(C(F)(F)F)c3n2)CC1 [Compound I-584] | 22 µM | 2 µM |  |  | 
Cc1cc(-c2ccc(F)cc2)nn2cc(C(=O)N3CCC4(COC4)C3)nc12 [Compound I-585] | 27 µM | 24 µM |  |  | 
Cc1cc(-c2ccc(F)cc2)nn2cc(C(=O)N3CCCC4(COC4)C3)nc12 [Compound I-586] | 13 µM | 19 µM |  |  | 
CC(C)c1cc(-c2ccc(F)cc2)nn2cc(C(=O)N3CCCCC34COC4)nc12 [Compound I-587] | 25 µM | 19 µM |  |  | 
CC(C)c1cc(Cl)nn2cc(C(=O)N3CCN(C(=O)C4(O)CCOCC4)CC3(C)C)nc12 [Compound I-588] | 37 µM | > 50 µM |  |  | 
CC(C)c1cc(Cl)nn2cc(C(=O)N3CCN(C(=O)C4(O)CCC4)CC3(C)C)nc12 [Compound I-589] | 27 µM | > 50 µM |  |  | 
CC(C)c1cc(C2CCOCC2)nn2cc(C(=O)N3CCN(C(=O)C4(O)CCC4)CC3(C)C)nc12 [Compound I-590] | 20 µM | > 50 µM |  |  | 
CC(C)c1cc(-c2ccc(F)cc2)nn2cc(C(=O)N3CCNC(=O)C3)nc12 [Compound I-591] | 17 µM | 41 µM |  |  | 
CCOC(=O)C1CCCCN1C(=O)c1cc2nc(-c3ccc(Cl)cc3)cc(C(F)(F)F)n2n1 (stereo not shown) [Compound P-592, reference compound] |  |  | 0.057 µM | 0.13 µM | 
O=C(c1cc2nc(-c3ccc(Cl)cc3)cc(C(F)(F)F)n2n1)N1CCCCC1 [Compound P-593, reference compound] |  |  |  | > 50 µM | SLIGKV % @ 50 μM ([1]; Table 8, @ 50 μM, reported prior-art compounds): 67% @ 50 μM

SMILES | IC50 ([1]; Table 6, 8 μM SLIGKV) | IC50 [4, 7] | IC50 [1, 8] | IC50 [4, 9] | also measured
O=C(c1cc2nc(-c3ccccc3)cc(C(F)(F)F)n2n1)N1CCCCC1 [Compound P-594, reference compound] |  |  | 4.67 µM | 28 µM | 
CC1CCCCN1C(=O)c1cc2nc(-c3ccccc3)cc(C(F)(F)F)n2n1 (stereo not shown) [Compound P-595, reference compound] |  |  | 1.73 µM | 19.2 µM | 
O=C(c1ccccc1)N1CCN(C(=O)c2cc3nc(-c4ccccc4)cc(C(F)(F)F)n3n2)CC1 [Compound P-596, reference compound] |  |  | 10.8 µM | > 50 µM | 
CN(CCO)C(=O)c1cc2nc(-c3ccc(Cl)cc3)cc(C(F)(F)F)n2n1 [Compound P-597, reference compound] |  |  | 17.4 µM | 27 µM | 
CC1CCCCN1C(=O)c1cc2nc(-c3ccc(Cl)cc3)cc(C(F)(F)F)n2n1 (stereo not shown) [Compound P-598, reference compound] |  |  | > 50 µM | > 50 µM | 
O=C(c1cc2nc(-c3ccc(Cl)cc3)cc(C(F)(F)F)n2n1)N1CCCCCC1 [Compound P-599, reference compound] |  |  | 9.81 µM | > 50 µM | 
O=C(O)C1CCCN(C(=O)c2cc3nc(-c4ccc(Cl)cc4)cc(C(F)(F)F)n3n2)C1 (stereo not shown) [Compound P-600, reference compound] |  |  | 37 µM | > 50 µM | 
O=C(c1cc2nc(-c3ccccc3)cc(C(F)(F)F)n2n1)N1CCCCCC1 [Compound P-601, reference compound] |  |  | 0.061 µM | 0.88 µM | 
CN(CCO)C(=O)c1cc2nc(-c3ccccc3)cc(C(F)(F)F)n2n1 [Compound P-602, reference compound] |  |  | 31 µM | > 50 µM | 
CCOC(=O)C1CCN(C(=O)c2cc3nc(-c4ccccc4)cc(C(F)(F)F)n3n2)CC1 [Compound P-603, reference compound] |  |  | 0.14 µM | 17 µM | 
CCOC(=O)C1CCCCN1C(=O)c1cc2nc(-c3ccccc3)cc(C(F)(F)F)n2n1 (stereo not shown) [Compound P-604, reference compound] |  |  | 0.64 µM | 3.85 µM | 
CCOC(=O)C1CCN(C(=O)c2cc3nc(-c4ccc(Cl)cc4)cc(C(F)(F)F)n3n2)CC1 [Compound P-605, reference compound] |  |  | 0.073 µM |  | Trypsin % @ 50 μM ([4]; Table 8): 50% @ 50 μM
O=C(c1ccccc1)N1CCN(C(=O)c2cc3nc(-c4ccc(Cl)cc4)cc(C(F)(F)F)n3n2)CC1 [Compound P-606, reference compound] |  |  | 0.37 µM | > 50 µM | 
O=C(c1cc2nc(-c3ccccc3)cc(C(F)(F)F)n2n1)N1CCC(c2ccc(F)cc2)C1 (stereo not shown) [Compound P-607, reference compound] |  |  | > 50 µM | > 50 µM | 
O=C(c1nn2c(C(F)(F)F)cc(-c3ccccc3)nc2c1Br)N1CCC(c2ccc(F)cc2)C1 (stereo not shown) [Compound P-608, reference compound] |  |  | 23 µM | 33 µM | 
O=C(c1cc2nc(-c3ccccc3)cc(C(F)(F)F)n2n1)N1CCC(O)CC1 [Compound P-609, reference compound] |  |  | 2.8 µM | 14 µM | 
O=C(O)C1CCCCN(C(=O)c2cc3nc(-c4ccc(F)cc4)cc(C(F)(F)F)n3n2)C1 (stereo not shown) [Compound P-610, reference compound] |  |  | 0.48 µM |  | Trypsin % @ 50 μM ([4]; Table 8): 63% @ 50 μM
O=C(O)C1CCCCN(C(=O)c2cc3nc(-c4ccc(Cl)cc4)cc(C(F)(F)F)n3n2)C1 (stereo not shown) [Compound P-611, reference compound] |  |  | 0.11 µM | 1.25 µM | 

From patent US20190119282A1, “IMIDAZOPYRIDAZINES USEFUL AS INHIBITORS OF THE PAR-2 SIGNALING PATHWAY” (Vertex Pharmaceuticals Incorporated, priority 2013, published 2019)
